Measurements from ChEMBL document CHEMBL1201862, “PubChem BioAssay data set” (2004).
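Method: 48-hour compound exposure of cells in 96-well plates, five concentrations, linear interpolation of endpoints. GI50 = concentration required for 50% inhibition of growth.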 Calls of active or inactive are those of the source. No stated cut-off is given here; in the data, active = GI50 up to about 1.1 µM and inactive = higher.

Assays:
Assay in all cases: DTP human tumour cell line panel, 48 h
SN12C = test system: SN12C
SK-MEL-28 = test system: SK-MEL-28
OVCAR-8 = test system: OVCAR-8
SNB-19 = test system: SNB-19
MOLT-4 = test system: MOLT-4
CAKI-1 = test system: CAKI-1
HOP-62 = test system: HOP-62
UACC-257 = test system: UACC-257
RXF 631 = test system: RXF 631
CCRF-CEM = test system: CCRF-CEM
IGROV-1 = test system: IGROV-1
SF-268 = test system: SF-268
COLO 205 = test system: COLO 205
SK-MEL-5 = test system: SK-MEL-5
OVCAR-4 = test system: OVCAR-4
HCT-116 = test system: HCT-116
DMS-273 = test system: DMS-273
HOP-18 = test system: HOP-18
NCI-H226 = test system: NCI-H226
KM-20L2 = test system: KM-20L2
A549 = test system: A549
NCI-H23 = test system: NCI-H23
LOX IMVI = test system: LOX IMVI
SF-539 = test system: SF-539
HT-29 = test system: HT-29
U-251 = test system: U-251
UO-31 = test system: UO-31
KM12 = test system: KM12
UACC-62 = test system: UACC-62
K562 = test system: K562
OVCAR-3 = test system: OVCAR-3
NCI-H460 = test system: NCI-H460
SF-295 = test system: SF-295
786-0 = test system: 786-0
ACHN = test system: ACHN
M14 = test system: M14
XF498 = test system: XF498
SNB-75 = test system: SNB-75
TK-10 = test system: TK-10
Malme-3M = test system: Malme-3M
SK-OV-3 = test system: SK-OV-3
LXFL 529 = test system: LXFL 529
OVCAR-5 = test system: OVCAR-5
SR = test system: SR
EKVX = test system: EKVX
HCT-15 = test system: HCT-15
A498 = test system: A498
DLD-1 = test system: DLD-1
RXF 393 = test system: RXF 393
SW-620 = test system: SW-620
NCI-H522 = test system: NCI-H522
HCC 2998 = test system: HCC 2998
SK-MEL-2 = test system: SK-MEL-2
M19-MEL = test system: M19-MEL
HL-60 = test system: HL-60
SNB-78 = test system: SNB-78
HOP-92 = test system: HOP-92
DMS-114 = test system: DMS-114
RPMI-8226 = test system: RPMI-8226

Measured: GI50

Cc1c(Cl)ccc2[s+]snc12
46.2 µM: HCT-15
inactive: SN12C 24.3 µM | SK-MEL-28 29.4 µM | OVCAR-8 21.6 µM | SNB-19 73.3 µM | MOLT-4 26.7 µM | CAKI-1 37.9 µM | HOP-62 51.6 µM | UACC-257 30.3 µM | RXF 631 33.4 µM | CCRF-CEM 23.2 µM | IGROV-1 48.8 µM | SF-268 23.8 µM | COLO 205 > 100 µM | SK-MEL-5 21 µM | OVCAR-4 42.3 µM | HCT-116 22.7 µM | DMS-273 38.2 µM | HOP-18 29 µM | NCI-H226 68.4 µM | KM-20L2 > 100 µM | A549 38.6 µM | NCI-H23 52.5 µM | LOX IMVI 23.7 µM | SF-539 21.4 µM | HT-29 34.4 µM | U-251 25.3 µM | UO-31 23.9 µM | KM12 43.1 µM | UACC-62 22.3 µM | K562 22.6 µM | OVCAR-3 51.3 µM | NCI-H460 55 µM | SF-295 > 100 µM | 786-0 19.1 µM | ACHN 42.2 µM | M14 24.5 µM | XF498 25.3 µM | SNB-75 67.6 µM | TK-10 62.7 µM | Malme-3M 49.8 µM | SK-OV-3 > 100 µM | LXFL 529 29.6 µM | OVCAR-5 > 100 µM | SR 25.2 µM | EKVX > 100 µM | A498 68.2 µM | DLD-1 25.4 µM | RXF 393 19.8 µM | SW-620 27.7 µM | NCI-H522 19.6 µM | HCC 2998 88.3 µM | SK-MEL-2 29.2 µM | M19-MEL 33 µM | HL-60 17.6 µM | SNB-78 31 µM

COc1cc(C(=O)C/C(CCC(=O)Nc2ccc(Cl)cc2Cl)=N/NC(=O)C(N)=O)ccc1O
inactive: SN12C > 100 µM | SK-MEL-28 > 100 µM | OVCAR-8 > 100 µM | SNB-19 > 100 µM | MOLT-4 > 100 µM | CAKI-1 > 100 µM | HOP-62 79.6 µM | UACC-257 > 100 µM | RXF 631 > 100 µM | CCRF-CEM > 100 µM | IGROV-1 > 100 µM | SF-268 > 100 µM | COLO 205 > 100 µM | SK-MEL-5 > 100 µM | OVCAR-4 > 100 µM | HCT-116 > 100 µM | DMS-273 > 100 µM | HOP-18 > 100 µM | NCI-H226 > 100 µM | KM-20L2 > 100 µM | A549 > 100 µM | NCI-H23 > 100 µM | SF-539 > 100 µM | HT-29 > 100 µM | U-251 > 100 µM | UO-31 72.9 µM | KM12 85.7 µM | UACC-62 65.9 µM | K562 76.2 µM | OVCAR-3 > 100 µM | NCI-H460 > 100 µM | SF-295 > 100 µM | 786-0 > 100 µM | ACHN > 100 µM | M14 > 100 µM | XF498 > 100 µM | SNB-75 7.91 µM | TK-10 > 100 µM | HOP-92 > 100 µM | Malme-3M > 100 µM | SK-OV-3 > 100 µM | LXFL 529 > 100 µM | OVCAR-5 > 100 µM | EKVX > 100 µM | A498 > 100 µM | DMS-114 > 100 µM | DLD-1 > 100 µM | SW-620 > 100 µM | NCI-H522 > 100 µM | RPMI-8226 > 100 µM | HCC 2998 > 100 µM | SK-MEL-2 > 100 µM | M19-MEL > 100 µM | HL-60 > 100 µM | SNB-78 > 100 µM
> 100 µM: HCT-15
